Key:
P. aeruginosa = format: cell-based, Pseudomonas aeruginosa; conditions: P. aeruginosa
Experimental: (§1) Typically, the in vitro antimicrobial activity of antimicrobial agents is tested using standard NCCLS bacterial inhibition assays, or MIC tests (see, National Committee on Clinical Laboratory Standards “Performance Standards for Antimicrobial Susceptibility Testing,” NCCLS Document M100-S5 Vol. 14, No. 16, December 1994; “Methods for dilution antimicrobial susceptibility test for bacteria that grow aerobically-Third Edition,” Approved Standard M7-A3, National Committee for Clinical Standards, Villanova, Pa.).
(§2) Briefly, ˜1×10^5 cfu/mL bacteria were diluted in TH (S. mutans), or Mueller-Hinton (MH) broth (all other organisms) and distributed to 96-well plates. Serially-diluted (2-fold) peptides were then added and the plates incubated at 37° C. for 18-24 h. […] All experiments were conducted 10 times.

S. mutans [1] = format: cell-based, Streptococcus mutans; conditions: S. mutans
Experimental: as §1, §2

MRSA [2] = assay: MIC (broth microdilution); format: cell-based, Methicillin-resistant Staphylococcus aureus
Experimental: as §1, §2

B. subtilis [3] = assay: Kill or inhibit growth/proliferation; morphology, biofilm and growth disruption (Tables 5, 6); format: cell-based, Bacillus subtilis; parameters: key: A: Peptide aggregates; B: Less hyphal formation; Clumps; Diffuse clumps and small polyps; F: Diffuse growth; H: Thin; I: Growth inhibition; Microcolony formation; Rippled; Small polyps; Thick; W: Halo formation on top, microlonies on bottom; note: test concentration or dose not given here
S. pneumoniae [4] = assay: as above; format: cell-based, Streptococcus pneumoniae; parameters: key: A: Peptide aggregates; B: Less hyphal formation; Clumps; Diffuse clumps and small polyps; F: Diffuse growth; H: Thin; I: Growth inhibition; Microcolony formation; Rippled; Small polyps; Thick; W: Halo formation on top, microlonies on bottom
MRSA [5] = assay: as above; format: cell-based, Methicillin-resistant Staphylococcus aureus; parameters: key: A: Peptide aggregates; B: Less hyphal formation; Clumps; Diffuse clumps and small polyps; F: Diffuse growth; H: Thin; I: Growth inhibition; Microcolony formation; Rippled; Small polyps; Thick; W: Halo formation on top, microlonies on bottom
A. baumannii = assay: MIC (broth microdilution); format: cell-based, Acinetobacter baumannii
Experimental: as §1, §2

M. luteus = assay: Kill or inhibit growth/proliferation; morphology, biofilm and growth disruption (Tables 5, 6); format: cell-based, Micrococcus luteus; parameters: key: A: Peptide aggregates; B: Less hyphal formation; Clumps; Diffuse clumps and small polyps; F: Diffuse growth; H: Thin; I: Growth inhibition; Microcolony formation; Rippled; Small polyps; Thick; W: Halo formation on top, microlonies on bottom; note: test concentration or dose not given here
microorganisms = assay: Peptides having multiple activities (targeting/binding, antimicrobial, growth or phenotype altering)
Text: In certain embodiments, peptides described herein can have multiple activities. Thus for example, a peptide can have both binding/targeting activity and antimicrobial activity. Such peptides can be used, e.g., in a chimeric construct, for any or all of these properties. Thus, for example, a peptide designated “B” in Table 8 can be used as a targeting peptide. If it is also designated G or M it can also be used for antimicrobial activity.

B. subtilis [6] = assay: MIC (broth microdilution); format: cell-based, Bacillus subtilis
Experimental: as §1, §2

[7] = test system: microorganisms (e.g., bacteria, yeasts, fungi); assay: Targeting peptide binding to target microorganisms (Table 3); conditions: preferably 1x PBS
C. jejuni = assay: Kill or inhibit growth/proliferation; morphology, biofilm and growth disruption (Tables 5, 6); format: cell-based, Campylobacter jejuni; parameters: key: A: Peptide aggregates; B: Less hyphal formation; Clumps; Diffuse clumps and small polyps; F: Diffuse growth; H: Thin; I: Growth inhibition; Microcolony formation; Rippled; Small polyps; Thick; W: Halo formation on top, microlonies on bottom; note: test concentration or dose not given here
S. epidermidis = assay: as above; format: cell-based, Staphylococcus epidermidis; parameters: key: A: Peptide aggregates; B: Less hyphal formation; Clumps; Diffuse clumps and small polyps; F: Diffuse growth; H: Thin; I: Growth inhibition; Microcolony formation; Rippled; Small polyps; Thick; W: Halo formation on top, microlonies on bottom; note: test concentration or dose not given here
C. jeikeium = assay: as above; format: cell-based, Corynebacterium jeikeium; parameters: key: A: Peptide aggregates; B: Less hyphal formation; Clumps; Diffuse clumps and small polyps; F: Diffuse growth; H: Thin; I: Growth inhibition; Microcolony formation; Rippled; Small polyps; Thick; W: Halo formation on top, microlonies on bottom; note: test concentration or dose not given here
E. coli [8] = assay: as above; format: cell-based, Escherichia coli; parameters: key: A: Peptide aggregates; B: Less hyphal formation; Clumps; Diffuse clumps and small polyps; F: Diffuse growth; H: Thin; I: Growth inhibition; Microcolony formation; Rippled; Small polyps; Thick; W: Halo formation on top, microlonies on bottom
S. mutans [9] = assay: as above; format: cell-based, Streptococcus mutans; parameters: key: A: Peptide aggregates; B: Less hyphal formation; Clumps; Diffuse clumps and small polyps; F: Diffuse growth; H: Thin; I: Growth inhibition; Microcolony formation; Rippled; Small polyps; Thick; W: Halo formation on top, microlonies on bottom
P. mirabilis = assay: as above; format: cell-based; parameters: key: A: Peptide aggregates; B: Less hyphal formation; Clumps; Diffuse clumps and small polyps; F: Diffuse growth; H: Thin; I: Growth inhibition; Microcolony formation; Rippled; Small polyps; Thick; W: Halo formation on top, microlonies on bottom; note: test concentration or dose not given here
E. faecalis = assay: as above; format: cell-based, Enterococcus faecalis; parameters: key: A: Peptide aggregates; B: Less hyphal formation; Clumps; Diffuse clumps and small polyps; F: Diffuse growth; H: Thin; I: Growth inhibition; Microcolony formation; Rippled; Small polyps; Thick; W: Halo formation on top, microlonies on bottom; note: test concentration or dose not given here
S. pneumoniae [10] = assay: MIC (broth microdilution); format: cell-based, Streptococcus pneumoniae
Experimental: as §1, §2

E. coli [11] = format: cell-based, Escherichia coli; conditions: E. coli
Experimental: as §1, §2
Throughout, for Organism, effect (morphology, biofilm and growth disruption): test concentration or dose not given here.
Throughout, for Organism, effect: test concentration or dose not given here.

Row | Substance | Organism, effect (S. pneumoniae [4]) | Organism, effect (MRSA [5]) | Organism, effect (M. luteus) | Activities (microorganisms) | Organism, effect (S. epidermidis) | Organism, effect (E. coli [8]) | Organism, effect (S. mutans [9]) | Organism, effect (P. mirabilis) | also measured
1 | FIRKFLQKLHL [Peptide K-16] | – | – | – | – | – | – | – | – | MIC (P. aeruginosa): P. aeruginosa, 12.5 μM; MIC (S. mutans [1]): S. mutans, 8 μM; MIC (MRSA [2]): MRSA , 25 μM
2 | MGIIAGIIKFIKGLIEKFTGK [PF-006] | S. pneumoniae (R) | MRSA (I) | M. luteus (A) | G B M | S. epidermidis (D) | – | – | – | Organism, effect (B. subtilis [3]): B. subtilis (I); MIC (A. baumannii): A. baumannii, 50 μM; MIC (MRSA [2]): MRSA , 50 μM; MIC (B. subtilis [6]): B. subtilis, 25 μM; Target(s) ([7]; microorganism the targeting peptide binds, binding in aqueous buffers varied by peptide solubility): S. epidermidis and M. luteus and E. coli and P. aeruginosa and MRSA and E. faecalis and C. jeikeium and C. jejuni; Organism, effect (C. jejuni): C. jejuni (D)
3 | MIHLTKQNTMEALHFIKQFYDMFFILNFNV [PF-040] | S. pneumoniae (D) | MRSA (D) | M. luteus (D) | G B | S. epidermidis (D) | E. coli (C) | S. mutans (F) | P. mirabilis (C) | Organism, effect (C. jeikeium): C. jeikeium (D); Organism, effect (B. subtilis [3]): B. subtilis (D); Organism, effect (C. jejuni): C. jejuni (D)
4 | PF-578: peptide having multiple activities (chain 1 QKANLRIGFTYTSDSNVCNLTFALLGSK; chain 2 QKANLRIGFTYTSDSNVCNLTFALLGSK; Peptide with targeting and/or antimicrobial activity) | S. pneumoniae (D) | MRSA (C) | M. luteus (C) | G B | S. epidermidis (D) | E. coli (C) | S. mutans (D) | P. mirabilis (C) | –
5 | PF-612: peptide having multiple activities (GTTLKYGLERQLKIDIHPEITIINLNGGADEFAKL; Peptide with targeting and/or antimicrobial activity) | S. pneumoniae (C) | MRSA (C) | M. luteus (A) | G B | S. epidermidis (C) | E. coli (C) | S. mutans (F) | P. mirabilis (C) | –
6 | PF-624 (VFLLDSYCFVKINL; Peptide with targeting and/or antimicrobial activity) | S. pneumoniae (D) | MRSA (C) | M. luteus (C) | – | S. epidermidis (D) | E. coli (C) | S. mutans (D) | P. mirabilis (C) | –
7 | PF-634: peptide having multiple activities (chain 1 MPKARPVNHNKKKSKITIKSNFTLFYMFNP; chain 2 MPKARPVNHNKKKSKITIKSNFTLFYMFNP; Peptide with targeting and/or antimicrobial activity) | S. pneumoniae (D) | MRSA (D) | M. luteus (C) | G B | S. epidermidis (D) | E. coli (C) | S. mutans (D) | P. mirabilis (C) | –
8 | PF-741: peptide having multiple activities (AKREDTVAAQIGANILNLIQ; Peptide with targeting and/or antimicrobial activity) | – | – | – | G B | – | – | – | – | Organism, effect (morphology, biofilm and growth disruption) (E. coli [8]): E. coli (C); Organism, effect (morphology, biofilm and growth disruption) (S. mutans [9]): S. mutans (D); Organism, effect (morphology, biofilm and growth disruption) (S. pneumoniae [4]): S. pneumoniae (D); Organism, effect (morphology, biofilm and growth disruption) (MRSA [5]): MRSA (C); Organism, effect (morphology, biofilm and growth disruption) (M. luteus): M. luteus (C); Organism, effect (morphology, biofilm and growth disruption) (P. mirabilis): P. mirabilis (C); Target(s) (microorganisms bound by the targeting peptide) ([7]; peptide binding in aqueous buffers varied by peptide solubility): S. epidermidis and M. luteus and P. mirabilis and P. aeruginosa and C. albicans and MRSA and S. pneumoniae and E. faecalis; Organism, effect (morphology, biofilm and growth disruption) (S. epidermidis): S. epidermidis (C)
9 | PF-770: peptide having multiple activities (GVGIGFIMMGVVGYAVKLVHIPIRYLIV; Peptide with targeting and/or antimicrobial activity) | – | – | – | G B | – | – | – | – | Organism, effect (morphology, biofilm and growth disruption) (E. coli [8]): E. coli (C); Organism, effect (morphology, biofilm and growth disruption) (S. mutans [9]): S. mutans (D); Organism, effect (morphology, biofilm and growth disruption) (S. pneumoniae [4]): S. pneumoniae (C); Organism, effect (morphology, biofilm and growth disruption) (MRSA [5]): MRSA (D); Organism, effect (morphology, biofilm and growth disruption) (M. luteus): M. luteus (C); Organism, effect (morphology, biofilm and growth disruption) (P. mirabilis): P. mirabilis (C); Organism, effect (morphology, biofilm and growth disruption) (S. epidermidis): S. epidermidis (D)
10 | SKFKVLRKIIIKEYKGELMLSIQKQR [PF-530] | S. pneumoniae (R) | MRSA (C) | – | G M | S. epidermidis (H) | E. coli (R) | – | – | MIC (A. baumannii): A. baumannii, 25 μM; Organism, effect (E. faecalis): E. faecalis (C)
11 | TKKIELKRFVDAFVKKSYENYILERELKKLIKAINEELPTK [PF-600] | S. pneumoniae (R) | MRSA (M) | M. luteus (C) | G B M | S. epidermidis (C) | E. coli (H) | S. mutans (S) | – | MIC (S. pneumoniae [10]): S. pneumoniae, 50 μM; MIC (E. coli [11]): E. coli, 50 μM
